Literature values in patent US7968723B2, “Compounds, their preparation and use” (High Point Pharmaceuticals, LLC, priority 2004, dated 2011).

Experiments:
[1] = test system: C2C12 muscle cells; details: in vitro treatment of C2C12 muscle cells; BioChem. Biophys. Acta 2003, 1633, 43-50; Mol. Endocrin. 2003, 17, 2477-2493
[2] = test system: high fat diet induced Insulin resistant mice and diabetic ob/ob; details: PNAS 2003, 100, 15924-15929

Which “regulation of genes (TG hydrolysis, FFA oxidation, lipid utilization, energy expenditure, lipid efflux)” value [1] does the source give for `Cc1cc(SCc2sc(-c3ccc(C(F)(F)F)cc3)nc2C)ccc1OCC(=O)O` [GW501516] here?
Its value is “regulation of genes involved with TG hydrolysis and FFA oxidation”.

And the insulin sensitivity [2]?
Its insulin sensitivity is “improved insulin sensitivity”.

And the “plasma glucose and insulin” value [2]?
Its value is “lowering of plasma glucose and insulin”.
